From patent US20180116220A1, “NOVEL TRIAZOLE DERIVATIVES” (BAYER CROPSCIENCE AKTIENGESELLSCHAFT, priority 2015, published 2018) come the findings set out here.

Several values for one entry are separate records, joined by “and”; a condition that tells them apart may be missing. Equal values may be shown once. Marks after values point to notes of the source that are not given here.

This series is described as follows: LogP by HPLC on reversed phase columns (EEC directive 79/831 Annex V.A8). In kind it is physicochemical. The note with it: for chromatographic logP: reversed phase HPLC column. On the procedure: [table] If more than one LogP value is available within the same method, all the values are given and separated by “+”. […] Lambda-max-values were determined using UV-spectra from 200 nm to 400 nm and the peak values of the chromatographic signals. Measurement of LogP values was performed as outlined above.

[1] abbreviates: [a] LC-UV, acidic range, 0.1% formic acid in water and acetonitrile as eluent.
Where [2] appears, read: [b] LC-UV, neutral range, 0.001 molar ammonium acetate solution in water and acetonitrile as eluent.

Usually LogP stands for a log measure of how a compound divides between an organic and an aqueous phase. High values mean a more lipophilic compound, low ones a more hydrophilic compound. As to `OC(Cn1cncn1)(c1ccc(F)cc1F)C1(Oc2ccc(Cl)cc2F)CC1` (racemic) [Example I-01], the LogP is 3.52^[a]; under setting [1] and 3.50^[b] under setting [2].
For `OC(Cn1cncn1)(c1ccc(F)cc1F)C1(Oc2ccc(F)cc2Cl)CC1` (racemic) [Example I-02], the LogP by setting is: under setting [1], 3.47^[a];; under setting [2], 3.46^[b].
Regarding `OC(Cn1cncn1)(c1ccc(F)cc1F)C1(Oc2ccccc2F)CC1` (racemic) [Example I-03], under setting [1], the LogP is 3.04^[a].
In the case of `OC(Cn1cncn1)(c1ccc(F)cc1F)C1(Oc2ccccc2I)CC1` (racemic) [Example I-04], the LogP by setting is: under setting [1], 3.64^[a];; under setting [2], 3.64^[b].
Taken in the same sequence, the figures for `OC(Cn1cncn1)(c1ccc(F)cc1F)C1(Oc2ccccc2Br)CC1` (racemic) [Example I-05] were 3.44^[a]; and 3.43^[b].
Taken in the same sequence, the figures for `OC(Cn1cncn1)(c1ccc(F)cc1F)C1(Oc2cccc(Br)c2)CC1` (racemic) [Example I-06] were 3.54^[a]; and 3.54^[b].
For `OC(Cn1cncn1)(c1ccc(F)cc1F)C1(Oc2ccc(Br)cc2)CC1` (racemic) [Example I-07] the same measures were 3.59^[a]; and 3.59^[b].
In the case of `OC(Cn1cncn1)(c1ccc(F)cc1F)C1(Oc2ccc(I)cc2)CC1` (racemic) [Example I-08], the lipophilicity (LogP) under setting [1] was 3.78^[a]; and the LogP under setting [2] was 3.80^[b].
Taken in the same sequence, the figures for `OC(Cn1cncn1)(c1ccc(F)cc1F)C1(Oc2ccc(Br)cc2F)CC1` (racemic) [Example I-09] were 3.56^[a]; and 3.54^[b].
Regarding `OC(Cn1cncn1)(c1ccc(F)cc1F)C1(Oc2ccccc2)CC1` (racemic) [Example I-11], the LogP was 3.67^[a]; under setting [1] and 3.71^[b] under setting [2].
In the case of `Cc1cc(I)ccc1OC1(C(O)(Cn2cncn2)c2ccc(F)cc2F)CC1` (racemic) [Example I-12], the LogP is 4.25^[a]; under setting [1] and 4.30^[b] under setting [2].
For `Cc1cc(Br)ccc1OC1(C(O)(Cn2cncn2)c2ccc(F)cc2F)CC1` (racemic) [Example I-13] the same measures were 3.99^[a]; and 4.08^[b].
With `OC(Cn1cncn1)(c1ccc(F)cc1F)C1(Oc2ccc(OC(F)(F)F)cc2)CC1` (racemic) [Example I-14], the LogP is 3.70^[a]; under setting [1] and 3.77^[b] under setting [2].
For `OC(Cn1cncn1)(c1ccc(F)cc1F)C1(Oc2ccc(SC(F)(F)F)cc2)CC1` (racemic) [Example I-15] the same measures were 4.09^[a]; and 4.13^[b].
`OC(Cn1cncn1)(c1ccc(Cl)cc1F)C1(Oc2ccc(F)cc2F)CC1` (racemic) [Example I-16]: the LogP under setting [1] is 3.44^[a].
Regarding `CC(=O)OC(Cn1cncn1)(c1ccc(F)cc1F)C1(Oc2ccc(Cl)cc2)CC1` (racemic) [Example I-17], the LogP by setting is: under setting [1], 3.47^[a];; under setting [2], 3.47^[b].
Consider `OC(Cn1cncn1)(c1ccc(F)cc1F)C1(Oc2c(F)cccc2F)CC1` (racemic) [Example I-18], for which the LogP under setting [1] was 3.02^[a].
Consider `OC(Cn1cncn1)(c1ccc(F)cc1F)C1(Oc2c(Cl)cccc2Cl)CC1` (racemic) [Example I-19], for which the LogP under setting [1] was 3.76^[a].
Still for that read-out and setting: with `COC(Cn1cncn1)(c1ccc(F)cc1F)C1(Oc2c(Cl)cccc2Cl)CC1` (racemic) [Example I-20] the figure was 4.06^[a]; with `COC(Cn1cncn1)(c1ccc(F)cc1F)C1(Oc2c(F)cccc2F)CC1` (racemic) [Example I-21], 3.48^[a].
On the same count and under the same terms, with `OC(Cn1cncn1)(c1ccc(F)cc1F)C1(Oc2c(F)cccc2Cl)CC1` (racemic) [Example I-22] the figure was 3.39^[a]; with `COC(Cn1cncn1)(c1ccc(F)cc1F)C1(Oc2c(F)cccc2Cl)CC1` (racemic) [Example I-23], 3.78^[a].
As to `OC(Cn1cncn1)(c1ccc(F)cc1F)C1(Oc2c(F)cccc2Br)CC1` (racemic) [Example I-24], the LogP under setting [1] was 3.51^[a].
Turning to `COC(Cn1cncn1)(c1ccc(F)cc1F)C1(Oc2c(F)cccc2Br)CC1` (racemic) [Example I-25], under setting [1], the LogP is 3.83^[a].
Still for that read-out and setting: with `COC(Cn1cncn1)(c1ccc(F)cc1F)C1(Oc2ccc(F)cc2F)CC1` (racemic) [Example I-26] the figure was 3.44^[a]; with `OC(Cn1cncn1)(c1ccc(Cl)cc1F)C1(Oc2ccc(Cl)cc2)CC1` (racemic) [Example I-27], 3.94^[a]; with `COC(Cn1cncn1)(c1ccc(Cl)cc1F)C1(Oc2ccc(Cl)cc2)CC1` (racemic) [Example I-28], 4.29^[a].
On the same count and under the same terms, for `OC(Cn1cncn1)(c1ccc(Cl)cc1F)C1(Oc2ccc(Cl)cc2F)CC1` (racemic) [Example I-29] the value was 3.89^[a]; for `CCOC(Cn1cncn1)(c1ccc(F)cc1F)C1(Oc2ccc(Cl)cc2)CC1` (racemic) [Example I-30], 4.32^[a]; for `C#CCOC(Cn1cncn1)(c1ccc(F)cc1F)C1(Oc2ccc(Cl)cc2)CC1` (racemic) [Example I-31], 3.90^[a].
Take `CCCOC(Cn1cncn1)(c1ccc(F)cc1F)C1(Oc2ccc(Cl)cc2)CC1` (racemic) [Example I-32]: under setting [1], the LogP was 4.73^[a].
Still for that read-out and setting: with `C=CCOC(Cn1cncn1)(c1ccc(F)cc1F)C1(Oc2ccc(Cl)cc2)CC1` (racemic) [Example I-33] the figure was 4.34^[a]; with `C[Si](C)(C)COC(Cn1cncn1)(c1ccc(F)cc1F)C1(Oc2ccc(Cl)cc2)CC1` (racemic) [Example I-34], 5.68^[a].
For the compound `Fc1ccc(C(Cn2cncn2)(OCC2CC2)C2(Oc3ccc(Cl)cc3)CC2)c(F)c1` (racemic) [Example I-35], the LogP under setting [1] is 4.71^[a].
Still for that read-out and setting: for `COC(Cn1cncn1)(c1ccc(F)cc1F)C1(Oc2ccc(Cl)cc2)CC1` (racemic) [Example I-36] the value was 3.81^[a].
On the same count and under the same terms, for `CC(C)COC(Cn1cncn1)(c1ccc(F)cc1F)C1(Oc2ccc(Cl)cc2)CC1` (racemic) [Example I-37] the value was 5.11^[a]; for `OC(Cn1cncn1)(c1ccc(F)cc1F)C1(Oc2ccc(C(F)(F)F)cc2)CC1` (racemic) [Example I-38], 3.70^[a]; for `OC(Cn1cncn1)(c1ccc(F)cc1F)C1(Oc2cccc(Cl)c2)CC1` (racemic) [Example I-39], 3.55^[a].
On the same count and under the same terms, for `OC(Cn1cncn1)(c1ccc(F)cc1F)C1(Oc2ccc(Cl)c(F)c2)CC1` (racemic) [Example I-40] the value was 3.63^[a].
Regarding `Fc1cc(Cl)ccc1C1(C2(Oc3ccc(Cl)cc3)CC2)CO1` (racemic) [Example V-22], the LogP under setting [1] was 5.08^[a].
Same read-out and setting: with `Fc1cc(Cl)ccc1OC1(C2(c3ccc(Cl)cc3F)CO2)CC1` (racemic) [Example V-23] the figure was 5.00^[a].
Same read-out and setting: with `Fc1ccc(C2(C3(Oc4ccc(Br)c(F)c4)CC3)CO2)c(F)c1` (racemic) [Example V-24] the figure was 4.89^[a]; with `Fc1ccc(C2(C3(Oc4ccc(OC(F)F)cc4)CC3)CO2)c(F)c1` (racemic) [Example V-25], 4.24^[a].
In the case of `Fc1ccc(C2(C3(Oc4cccc(Cl)c4F)CC3)CO2)c(F)c1` (racemic) [Example V-26], the LogP under setting [1] was 4.44^[a].
The same measure, in the same setting: with `Fc1ccc(C2(C3(Oc4ccc(F)c(F)c4)CC3)CO2)c(F)c1` (racemic) [Example V-27] the figure was 4.36^[a]; with `OC(Cn1cncn1)(c1ccc(F)cc1F)C1(Oc2ccc(Cl)cc2)CC1` (single isomer, unassigned) [Example I-41], 3.48^[a].
As a reminder, the chromatographic logP is a lipophilicity value derived from retention on a column. The low end stands for lower lipophilicity, the high end for higher lipophilicity. `Fc1ccc(C2(C3(Oc4ccc(Cl)cc4)CC3)CO2)c(F)c1` (stereo not shown) [Example V-1, 2-[1-(4-chlorophenoxy)cyclopropyl]-2-(2,4-difluorophenyl)oxirane]: the chromatographic logP was 4.57 under setting [1] and 4.58 under setting [2].
Take `Fc1ccc(C2(C3(Oc4ccc(Cl)cc4F)CC3)CO2)c(F)c1` (stereo not shown) [Example V-2]: the LogP is, setting by setting: under setting [1], 4.50^[a]; 4.50^[b]; under setting [2], 4.50^[a]; 4.50^[b].
On to `Fc1ccc(C2(C3(Oc4ccc(F)cc4Cl)CC3)CO2)c(F)c1` (stereo not shown) [Example V-3], for which the LogP is, setting by setting: under setting [1], 4.45; under setting [2], 4.44.
Regarding `Fc1ccc(C2(C3(Oc4ccccc4F)CC3)CO2)c(F)c1` (stereo not shown) [Example V-4], the LogP under setting [1] is 3.99^[a].
For the compound `Fc1ccc(C2(C3(Oc4ccccc4Br)CC3)CO2)c(F)c1` (stereo not shown) [Example V-5], the LogP came to 4.36 under setting [1] and 4.43 under setting [2].
For `Fc1ccc(C2(C3(Oc4cccc(Br)c4)CC3)CO2)c(F)c1` (stereo not shown) [Example V-6] the same measures were 4.63 and 4.71.
For `Fc1ccc(C2(C3(Oc4ccc(Br)cc4)CC3)CO2)c(F)c1` (stereo not shown) [Example V-7] the same measures were 4.66 and 4.74.
Taken in the same sequence, the figures for `Fc1ccc(C2(C3(Oc4ccccc4I)CC3)CO2)c(F)c1` (stereo not shown) [Example V-8] were 4.58 and 4.66.
On to `Fc1ccc(C2(C3(Oc4cccc(I)c4)CC3)CO2)c(F)c1` (stereo not shown) [Example V-9], for which the lipophilicity (LogP) is, setting by setting: under setting [1], 4.82; under setting [2], 4.90.
For `Fc1ccc(C2(C3(Oc4ccc(I)cc4)CC3)CO2)c(F)c1` (stereo not shown) [Example V-10] the same measures were 4.87 and 4.95.
For `Fc1ccc(C2(C3(Oc4ccc(Br)cc4F)CC3)CO2)c(F)c1` (stereo not shown) [Example V-11] the same measures were 4.57 and 4.65.
As for `Cc1cc(I)ccc1OC1(C2(c3ccc(F)cc3F)CO2)CC1` (stereo not shown) [Example V-12], the LogP under setting [2] was 5.40 and 5.48.
